Assay results reported in publication PMC9738179, “New Nucleic Base-Tethered Trithiolato-Bridged Dinuclear Ruthenium(II)-Arene Compounds: Synthesis and Antiparasitic Activity” (Molecules, 2022).
Where “and” joins values, the source holds several entries; their conditions need not be identical. Identical values can stand only once.

What was measured:
[1] = test system: human foreskin fibroblasts (HFF); assay: Cytotoxicity in non-infected HFF by alamarBlue assay; assay type: cell-based
Protocol: (§1) The screening cascade for the compounds was described in former studies. All compounds were prepared as 1 mM stock solutions from powder, in dimethyl sulfoxide (DMSO, Sigma, St. Louis, MO, USA). For in vitro activity and cytotoxicity assays, HFF were seeded at 5 × 10^3/well and allowed to grow to confluence in phenol-red free culture medium at 37 °C and 5% CO2. T. gondii tachyzoites were released from host cells, and HFF monolayers were infected with freshly isolated parasites (1 × 10^3/well), and compounds were added concomitantly with infection.
Cytotoxicity assays using uninfected confluent HFF host cells were performed by the alamarBlue assay as previously reported. Confluent HFF monolayers in 96 well-plates were exposed to 0.1, 1, and 2.5 μM of each compound. Non-treated HFF as well as DMSO controls (0.01%, 0.1%, and 0.25%) were included. After 72 h of incubation at 37 °C/5% CO2, the medium was removed, and the plates were washed once with PBS. Resazurin suspended in PBS to a final concentration of 0.01 g/L was added to each well (200 μL/well). Fluorescence was measured at excitation wavelength 530 nm and emission wavelength […] using an EnSpire® multimode plate reader (PerkinElmer, Inc, Waltham, MA, USA). The cytotoxicity values were calculated as percentage of the respective DMSO control, which represented 100% of HFF viability.

[2] = test system: T. gondii β-gal tachyzoites; assay: Dose-response study (IC50) against T. gondii β-gal tachyzoites; assay type: cell-based, Toxoplasma gondii; settings: 8 serial concentrations 0.007-1 µM, 72 h
Protocol: as §1
For the dose-response study (IC50 values), measurements for T. gondii β-gal were performed. The selected compounds were added concomitantly with infection in 8 serial concentrations 0.007, 0.01, 0.03, 0.06, 0.12, 0.25, 0.5, and 1 μM.
(§2) To measure the activity of the tested compound on T. gondii β-gal parasites, after a period of 72 h of culture at 37 °C/5% CO2, the culture medium was aspirated, and cells were permeabilized by adding 90 μL PBS (phosphate buffered saline) with 0.05% Triton X-100. Next, 10 μL of 5 mM chlorophenolred-β-D-galactopyranoside (CPRG; Roche Diagnostics, Rotkreuz, Switzerland, substrate for the β-galactosidase) in PBS were added. Release of chlorophenol red was measured at 570 nm using an EnSpire® multimode plate reader (PerkinElmer, Inc., Waltham, MA, USA). A 100% proliferation of T. gondii β-gal was assigned to control parasites treated only with DMSO. For the primary screening at 0.1 and 1 μM, the activity was measured as the release of chlorophenol red over time and was calculated as percentage from the respective DMSO treated control, which represented 100% of T. gondii β-gal growth.
For the IC50 assays, the activity measured as the release of chlorophenol red over time was proportional to the number of live parasites down to 50 per well as determined in pilot assays. IC50 values were calculated after the logit-log-transformation of relative growth and subsequent regression analysis. All calculations were performed using the corresponding software tool contained in the Excel software package (Microsoft, Redmond, WA, USA).

[3] = test system: T. gondii β-gal tachyzoites; assay: Primary screening: T. gondii β-gal proliferation in HFF monolayers at 0.1 and 1 µM (CPRG readout); assay type: cell-based, Toxoplasma gondii; settings: tachyzoites cultured in HFF, 72 h, relative to DMSO control
Protocol: as §1
In the primary screening, HFF monolayers infected with T. gondii β-gal were treated with 0.1 and 1 µM of each compound, or the corresponding concentration of DMSO (0.01 or 0.1%, respectively) as controls and were incubated for 72 h at 37 °C/5% CO2 as previously described.
as §2

[4] = 0.1 µM, non-infected HFF, 72 h, relative to DMSO control, triplicate
[5] = 2.5 µM, control 0.25% DMSO = 100%, six replicates
[6] = 1 µM, non-infected HFF, 72 h, relative to DMSO control, triplicate

| SMILES | HFF Viability (%) [1, 4] [%] | HFF Viability (%) [1, 5] | IC50 [2] [µM] | T. gondii β-gal Growth (%) ([3]; 0.1 µM) | T. gondii β-gal Growth (%) ([3]; 1 µM) | HFF Viability (%) ([1]; 0.1 µM) | HFF Viability (%) ([1]; 1 µM) | HFF Viability (%) ([1]; 2.5 µM) | HFF Viability (%) [1, 6] [%] |
| --- | --- | --- | --- | --- | --- | --- | --- | --- | --- |
| C#CCCCC(=O)Nc1ccc([S+]2[Ru-]3[S+](Cc4ccc(C(C)(C)C)cc4)[Ru-]2[S+]3Cc2ccc(C(C)(C)C)cc2)cc1.Cc1ccc(C(C)C)cc1.Cc1ccc(C(C)C)cc1.[Cl-] (centres unmarked) [Compound 5] | 101 ± 0 | 34% | 0.038 | 21 ± 2 | 0 ± 0 |  |  |  |  |
| C#Cc1ccc(C(=O)Nc2ccc([S+]3[Ru-]4[S+](Cc5ccc(C(C)(C)C)cc5)[Ru-]3[S+]4Cc3ccc(C(C)(C)C)cc3)cc2)cc1.Cc1ccc(C(C)C)cc1.Cc1ccc(C(C)C)cc1.[Cl-] (centres unmarked) [Compound 6] | 95 ± 1 | 17% | 0.288 | 112 ± 1 | 6 ± 1 |  |  |  |  |
| C#CCOC(=O)Cc1ccc([S+]2[Ru-]3[S+](Cc4ccc(C(C)(C)C)cc4)[Ru-]2[S+]3Cc2ccc(C(C)(C)C)cc2)cc1.Cc1ccc(C(C)C)cc1.Cc1ccc(C(C)C)cc1.[Cl-] (centres unmarked) [Compound 7] | 100 ± 2 | 51% | 0.289 | 19 ± 1 | 0 ± 0 |  |  |  |  |
| CC(C)(C)c1ccc(C[S+]2[Ru-]3[S+](Cc4ccc(C(C)(C)C)cc4)[Ru-]2[S+]3c2ccccc2CN=[N+]=[N-])cc1.Cc1ccc(C(C)C)cc1.Cc1ccc(C(C)C)cc1.[Cl-] (centres unmarked) [Compound 9] | 96 ± 1 | 11% | 0.048 |  | 1 ± 1 |  |  |  |  |
| CC(C)(C)c1ccc(C[S+]2[Ru-]3[S+](Cc4ccc(C(C)(C)C)cc4)[Ru-]2[S+]3c2ccc(N=[N+]=[N-])cc2)cc1.Cc1ccc(C(C)C)cc1.Cc1ccc(C(C)C)cc1.[Cl-] (centres unmarked) [Compound 10] | 94 ± 1 | 38% | 0.064 |  | 1 ± 0 |  |  |  |  |
| Nc1ncnc2c1ncn2CCO [Compound 14A, 9-(2-hydroxyethyl)adenine] |  |  |  | 104 ± 2 | 75 ± 11 |  |  |  |  |
| CC(C)(C)c1ccc(C[S+]2[Ru-]3[S+](Cc4ccc(C(C)(C)C)cc4)[Ru-]2[S+]3c2ccccc2Cn2cc(Cn3ccc(=O)[nH]c3=O)nn2)cc1.Cc1ccc(C(C)C)cc1.Cc1ccc(C(C)C)cc1.[Cl-] (centres unmarked) [Compound 19] | 93 ± 2 | 50% | 0.46 |  |  |  |  |  |  |
| Cc1ccc(C(C)C)cc1.Cc1ccc(C(C)C)cc1.Cc1cn(Cc2cn(Cc3ccccc3[S+]3[Ru-]4[S+](Cc5ccc(C(C)(C)C)cc5)[Ru-]3[S+]4Cc3ccc(C(C)(C)C)cc3)nn2)c(=O)[nH]c1=O.[Cl-] (centres unmarked) [Compound 20] |  |  | 0.363 | 102 ± 0 | 1 ± 0 | 100 ± 2 | 71 ± 2 | 39 |  |
| CC(C)(C)c1ccc(C[S]2[Ru]3[S](Cc4ccc(C(C)(C)C)cc4)[Ru+]2[S]3c2ccccc2Cn2cc(Cn3ccc(N)nc3=O)nn2)cc1.Cc1ccc(C(C)C)cc1.Cc1ccc(C(C)C)cc1.[Cl-] [Compound 21] |  |  | 0.046 |  | 0 ± 0 | 109 ± 2 | 89 ± 1 | 38 |  |
| CC(C)(C)c1ccc(C[S]2[Ru]3[S](Cc4ccc(C(C)(C)C)cc4)[Ru+]2[S]3c2ccccc2Cn2cc(Cn3cnc4c(N)ncnc43)nn2)cc1.Cc1ccc(C(C)C)cc1.Cc1ccc(C(C)C)cc1.[Cl-] [Compound 22] |  |  | 0.108 | 79 ± 3 | 1 ± 0 | 102 ± 0 | 77 ± 2 | 52 |  |
| CC(C)(C)c1ccc(C[S]2[Ru]3[S](Cc4ccc(C(C)(C)C)cc4)[Ru+]2[S]3c2ccc(-n3cc(Cn4ccc(=O)[nH]c4=O)nn3)cc2)cc1.Cc1ccc(C(C)C)cc1.Cc1ccc(C(C)C)cc1.[Cl-] [Compound 23] | 100 ± 1 | 64% | 0.426 |  |  |  |  |  |  |
| CC(C)(C)c1ccc(C[S]2[Ru]3[S](Cc4ccc(C(C)(C)C)cc4)[Ru+]2[S]3c2ccc(-n3cc(Cn4ccc(N)nc4=O)nn3)cc2)cc1.Cc1ccc(C(C)C)cc1.Cc1ccc(C(C)C)cc1.[Cl-] [Compound 25] |  |  |  | 82 ± 6 |  | 94 ± 9 | 91 ± 8 |  |  |
| CC(C)(C)c1ccc(C[S]2[Ru]3[S](Cc4ccc(C(C)(C)C)cc4)[Ru+]2[S]3c2ccc(-n3cc(Cn4cnc5c(N)ncnc54)nn3)cc2)cc1.Cc1ccc(C(C)C)cc1.Cc1ccc(C(C)C)cc1.[Cl-] [Compound 26] |  |  | 0.178 | 109 ± 6 |  | 109 ± 2 | 76 ± 0 | 45 |  |
| NC(=O)c1ccc(-c2cn(Cc3cc(=O)[nH]c(=O)[nH]3)nn2)cc1 [Compound 29] |  |  |  |  |  | 101 ± 1 |  |  |  |
| CC(C)(C)c1ccc(C[S]2[Ru]3[S](Cc4ccc(C(C)(C)C)cc4)[Ru+]2[S]3c2ccc(CC(=O)OCc3cn(Cc4cc(=O)[nH]c(=O)[nH]4)nn3)cc2)cc1.Cc1ccc(C(C)C)cc1.Cc1ccc(C(C)C)cc1.[Cl-] [Compound 30] | 114 ± 0 | 97% | 0.659 |  |  |  |  |  |  |
| CC(C)(C)c1ccc(C[S]2[Ru]3[S](Cc4ccc(C(C)(C)C)cc4)[Ru+]2[S]3c2ccc(CC(=O)NCc3cn(Cc4cc(=O)[nH]c(=O)[nH]4)nn3)cc2)cc1.Cc1ccc(C(C)C)cc1.Cc1ccc(C(C)C)cc1.[Cl-] [Compound 31] |  |  |  |  |  | 99 ± 3 |  |  |  |
| CC(C)(C)c1ccc(C[S]2[Ru]3[S](Cc4ccc(C(C)(C)C)cc4)[Ru+]2[S]3c2ccccc2Cn2cc(-c3ccccc3)nn2)cc1.Cc1ccc(C(C)C)cc1.Cc1ccc(C(C)C)cc1.[Cl-] [Compound 34] | 96 ± 1 | highly toxic and 3% | 0.092 | 7 ± 0 | 1 ± 0 |  |  |  | 70 ± 1 |
| CC(C)(C)c1ccc(C[S]2[Ru]3[S](Cc4ccc(C(C)(C)C)cc4)[Ru+]2[S]3c2ccccc2Cn2cc(-c3ccc(CO)cc3)nn2)cc1.Cc1ccc(C(C)C)cc1.Cc1ccc(C(C)C)cc1.[Cl-] [Compound 35] |  |  |  | 1 ± 0 | 0 ± 0 | 89 ± 0 |  |  |  |
| CC(C)(C)c1ccc(C[S]2[Ru]3[S](Cc4ccc(C(C)(C)C)cc4)[Ru+]2[S]3c2ccccc2Cn2cc(CO)nn2)cc1.Cc1ccc(C(C)C)cc1.Cc1ccc(C(C)C)cc1.[Cl-] [Compound 36] | 115 ± 1 | low toxicity and medium toxicity and 77% | 0.111 |  | 0 ± 0 |  |  |  |  |
| CC(C)(C)c1ccc(C[S]2[Ru]3[S](Cc4ccc(C(C)(C)C)cc4)[Ru+]2[S]3c2ccc(-n3cc(-c4ccccc4)nn3)cc2)cc1.Cc1ccc(C(C)C)cc1.Cc1ccc(C(C)C)cc1.[Cl-] [Compound 37] | 99 ± 1 | highly toxic and 17% | 0.096 | 13 ± 1 | 0 ± 0 |  |  |  | 71 ± 0 |
| CC(C)(C)c1ccc(C[S]2[Ru]3[S](Cc4ccc(C(C)(C)C)cc4)[Ru+]2[S]3c2ccc(-n3cc(CO)nn3)cc2)cc1.Cc1ccc(C(C)C)cc1.Cc1ccc(C(C)C)cc1.[Cl-] [Compound 38] |  |  | 0.128 | 42 ± 2 | 0 ± 0 | 104 ± 1 | 71 ± 1 | 59 |  |
